Laboratory results from ChEMBL document CHEMBL3301361, “Experimental in vitro DMPK and physicochemical data on a set of publicly disclosed compounds”.
≈ marks a conversion by molar mass, not a printed value.

Legend:
physchem [1] = settings: pH 7.4 buffer
physchem [2] = settings: octan-1-ol/water

| Structure (SMILES) | solubility thermodynamic (physchem [1]) | logD (physchem [2]; pH 7.4, LogD7.4) | logD (physchem [2]; pH 7.4) |
| --- | --- | --- | --- |
| COc1cc2c(Nc3cnc(NC(=O)c4ccccc4)nc3)ncnc2cc1OCCCN1CCOCC1 | 3.6 µM (≈ 1.86 µg/mL) | 2.7 |  |
| CC1(C)Oc2ncnc(N)c2N=C1c1ccc([C@H]2CC[C@H](CC(=O)O)CC2)cc1 | 118 µM (≈ 46.4 µg/mL) | 1.32 |  |
| CS(=O)(=O)c1cccc(Nc2nccc(Nc3cccc4c3OCO4)n2)c1 | 5.9 µM (≈ 2.27 µg/mL) | 2.83 |  |
| CNC(=O)c1ccc(N2C(=S)N(c3ccc(C#N)c(C(F)(F)F)c3)C(=O)C23CCC3)cc1F | 1.6 µM (≈ 0.762 µg/mL) |  | 3.3 |
| Cc1nc(C)c(-c2ccc([C@H]3CC[C@H](CCC(=O)O)CC3)cc2)nc1C(N)=O | 200 µM (≈ 76.1 µg/mL) | 1.6 |  |
| CN(C(=O)NCc1ccccc1)C1CCN(CCC(c2ccccc2)c2ccccc2)CC1 | 25.7 µM (≈ 11.3 µg/mL) | 3.4 |  |
| CCCc1c(C(=O)Nc2ccc(F)cc2C)cnn1-c1ccccc1 | 3.1 µM (≈ 1.05 µg/mL) | 3.89 |  |
| COc1cc2ncnc(Nc3cccc(Cl)c3F)c2cc1CN1C[C@H](OC)C[C@@H]1C(N)=O | 436 µM (≈ 201 µg/mL) | 3.09 |  |
| Cc1ccc(NC(=O)c2ccnc(N3CCOCC3)c2)cc1Nc1ccnc(Cl)n1 | 15.1 µM (≈ 6.42 µg/mL) | 3.1 |  |
| CN(C(=O)C1CCC1)C1CCN(CCC(c2ccccc2)c2ccccc2)CC1 | 282 µM (≈ 110 µg/mL) | 3.2 |  |
| COc1cc2ncnc(Nc3cccc(Cl)c3F)c2cc1CN(C)[C@@H](C)C(N)=O | 42.7 µM (≈ 17.8 µg/mL) | 3.42 |  |
| CC1CCc2cc(F)cc3c(=O)c(C(=O)O)cn1c23 (stereo not drawn) [FLUMEQUINE] | 776 µM (≈ 203 µg/mL) |  | 0.74 |
| CCn1c(-c2nonc2N)nc2c(C#CC(C)(C)O)ncc(OCC3CCCNC3)c21 (stereo not drawn) | 135 µM (≈ 57.4 µg/mL) | 0.6 |  |
| CC(C)C(=O)Nc1ccc([N+](=O)[O-])c(C(F)(F)F)c1 [FLUTAMIDE] | 89.1 µM (≈ 24.6 µg/mL) |  | 3.46 |
| Cc1c(-c2ccccc2F)c(=O)n(C[C@H](N)c2ccccc2)c(=O)n1Cc1c(F)cccc1F | 407 µM (≈ 190 µg/mL) | 2.76 |  |
| Cc1sc2ncnc(SCC(=O)N3CCCC3)c2c1C | 100 µM (≈ 30.7 µg/mL) | 2.89 |  |
| CNC(=O)c1ccc2c(=O)cc(-c3cccnc3)[nH]c2c1 | 309 µM (≈ 86.3 µg/mL) | 1.01 |  |
| CS(=O)(=O)c1cccc(Nc2nccc(Nc3cccc4[nH]ncc34)n2)c1 | 6.8 µM (≈ 2.59 µg/mL) | 2.91 |  |
| O=C(Cn1cnc2ccccc21)c1ccc(Br)cc1 | 129 µM (≈ 40.6 µg/mL) | 3.22 |  |
| Cc1cc2c(C)cc(=O)oc2c2c1NCCC2 | 30.9 µM (≈ 7.08 µg/mL) | 2.9 |  |

| Structure (SMILES) | solubility thermodynamic (physchem [1]) | logD (physchem [2]; pH 7.4, LogD7.4) | logD (physchem [2]; pH 7.4) |
| --- | --- | --- | --- |
| O=C(c1scc2c1CCCC2)N1CCCCC1 | 871 µM (≈ 217 µg/mL) | 3.16 |  |
| Cc1cccc(NS(=O)(=O)c2cccc3nonc23)c1 | 81.3 µM (≈ 23.5 µg/mL) | 3 |  |
| COc1cc2ncnc(Nc3cccc(Cl)c3F)c2cc1CN(C)[C@H](C)C(N)=O | 41.7 µM (≈ 17.4 µg/mL) | 3.44 |  |
| O=C(CCc1ccncc1)Nc1ccc(C(=O)c2ccccc2)cc1 | 8.1 µM (≈ 2.68 µg/mL) | 3.4 |  |
| NS(=O)(=O)c1cccc(Nc2nccc(Nc3cccc4[nH]ncc34)n2)c1 | 51.3 µM (≈ 19.6 µg/mL) | 2.6 |  |
| Nc1ccc(OCc2ccccc2)cc1 [4-BENZYLOXYANILINE] | 468 µM (≈ 93.2 µg/mL) | 2.2 |  |
| Cc1ccc(C(=O)Nc2ccon2)cc1-n1cnc2ccc(N3CCN(C)CC3)cc2c1=O | 57.5 µM (≈ 25.6 µg/mL) | 1.87 |  |
| COc1cc(N2CCN(C(C)=O)CC2)ccc1Nc1ncc(C#N)c(-c2cnc3ccccn23)n1 | 0.9 µM (≈ 0.422 µg/mL) | 2.8 |  |
| O=C(CCN1CCCCC1)Nc1ccc(-c2cccn3c(=O)cc(N4CCOCC4)nc23)c2sc3ccccc3c12 | 16.6 µM (≈ 9.42 µg/mL) | 2.9 |  |
| Nc1nc(-c2ccc(Cl)cc2)cs1 | 83.2 µM (≈ 17.5 µg/mL) | 3.31 |  |
| O=C(NC1CCCC1)C(c1ccncc1)N(Cc1ccco1)C(=O)c1ccc(-c2ccccc2)[nH]1 (stereo not drawn) | 3.5 µM (≈ 1.64 µg/mL) | 4.36 |  |
| Cc1cccc(Nc2nnc(C(=O)Nc3ccc(N4CCOCC4)nc3)o2)c1 | 4.8 µM (≈ 1.83 µg/mL) | 3.42 |  |
| O=C(NCCSCc1ccccc1)c1ccccc1 | 72.4 µM (≈ 19.6 µg/mL) | 3.3 |  |
| CNc1cccc(CCOc2ccc(C[C@H](NC(=O)c3c(F)cccc3Cl)C(=O)O)cc2)n1 | 1230 µM (≈ 581 µg/mL) | -0.42 |  |
| COc1ccc(C(=O)N2CCC(C(=O)c3ccc(F)cc3)CC2)cc1 | 21.4 µM (≈ 7.31 µg/mL) | 2.92 |  |
| O=c1oc(-c2ccccc2)cc2ccccc12 | 11.5 µM (≈ 2.56 µg/mL) | 3.84 |  |
| COc1ccc2c(c1)[nH]c1c(C)nccc12 [HARMINE] | 55 µM (≈ 11.7 µg/mL) |  | 2.9 |
| Cn1c(=O)n(Cc2ccc(C(=O)O)cc2)c(=O)c2cc(C#CCc3ccccc3)ccc21 | 3 µM (≈ 1.27 µg/mL) | 2.5 |  |
| CC1(C)N=C(N)N=C(N)N1c1ccc(Oc2ccc(Cl)cc2)c(Cl)c1 | 372 µM (≈ 141 µg/mL) | 0.79 |  |
